Measured values from PubChem BioAssay (NCI).
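1) Cells in 96-well plates. 2) Compound, 48 h, 5 concentrations. 3) Linear interpolation between surrounding doses. 4) Unreached endpoint = highest concentration. TGI: concentration producing complete growth inhibition.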

What was measured:
Experiment in all cases: NCI tumour cell line growth inhibition, 48 h
[1] = test system: A549 NSCLC
[2] = test system: ACHN renal
[3] = test system: CCRF-CEM leukemia
[4] = test system: DU-145 prostate
[5] = test system: EKVX NSCLC
[6] = test system: HCC-2998 colon
[7] = test system: HCT-116 colon
[8] = test system: HCT-15 colon
[9] = test system: HL-60(TB) leukemia
[10] = test system: HOP-62 NSCLC
[11] = test system: HS 578T breast
[12] = test system: K-562 leukemia
[13] = test system: KM12 colon
[14] = test system: LOX IMVI melanoma
[15] = test system: M14 melanoma
[16] = test system: MOLT-4 leukemia
[17] = test system: NCI-H226 lung
[18] = test system: NCI-H23 lung
[19] = test system: NCI-H522 lung
[20] = test system: NCI/ADR-RES ovarian
[21] = test system: OVCAR-3 ovarian
[22] = test system: OVCAR-8 ovarian
[23] = test system: PC-3 prostate
[24] = test system: RXF 393 renal
[25] = test system: SF-268 CNS
[26] = test system: SF-295 CNS
[27] = test system: SF-539 CNS
[28] = test system: SK-MEL-5 melanoma
[29] = test system: SN12C renal
[30] = test system: SNB-19 CNS
[31] = test system: SNB-75 CNS
[32] = test system: T-47D breast
[33] = test system: U251 CNS
[34] = test system: UACC-257 melanoma
[35] = test system: UACC-62 melanoma
[36] = test system: UO-31 renal

Measured: TGI

Oc1c(C(O)c2ccccn2)ccc2ccccc12 (stereo unspecified)
42.1 µM: [9]
46.1 µM: [35]
59.4 µM: [6]
97 µM: [8]
74.1 µM: [19]
> 100 µM: all other assays above
